# Patent publication US6159953A, “Anti-malarial composition and method of use” (Catholic University of America, priority 1992, dated 2000)
# Like-named read-outs stand apart in the source and are kept apart here.
# Experiments:
# [1] = Pharmacokinetics of 5-fluoro-orotate in mice; format: in vivo, Swiss white mice
# Procedure: FIG. 3 illustrates time-dependant changes in plasma 5-fluoroorotate concentration following single intraperitoneal injections of 5-fluoro-orotate at 0.2 mg/kg (.box-solid.), 1 mg/kg (.diamond-solid.), or 5 mg/kg (.tangle-solidup.). Two mice were used at each dosage level. At each time point, duplicate 200 μl samples of blood were drawn and analyzed for 5-fluoro-orotate concentration.
# Several types of in vivo experiments in intact vertebrates can be used to test the effectiveness in vivo of the anti-malarial compositions of this invention. In one in vivo test system, dosage regimens for pyrimidine analogues are estimated by determining the pharmacokinetics of the drugs. Normal and malaria parasite-infected animals (preferably mice, but other rodents can be used) are injected once (preferably intraperitoneally, but subcutaneous or intravenous administration is also suitable) with the drug at various doses, e.g, from 0 to about 10 mg/kg body weight, preferably from about 0.2 to about 5 mg/kg body weight. At various time points (preferably from about 3 to about 180 minutes), blood samples are drawn from the animals and the amount of the drug in the plasma fraction determined as described in Example 7 below. The concentration of drug is plotted as a function of time for each drug dosage.
# Pairs of Swiss white mice (Charles River Labs, Mass.) were injected intraperitoneally with 200 μl of [2-^14 C]-5-fluoro-orotate in saline (55 μCi/μmol). Single injections of the drug were made at dosages of 0.2, 1 and 5 mg/kg body weight. At time points ranging from about 3 to about 180 minutes, two 200 μl blood samples were drawn from the tail veins of the mice, and the amount of 5-fluoro-orotate present in the plasma determined, as described below.
# Blood samples were immediately diluted in 100 μl of cold saline, and centrifuged in a desk top Eppendorf centrifuge for 1 minute to separate the plasma fraction from blood cells. Cell pellets were washed with 100 μl of saline, centrifuged, and the supernatant fractions mixed with plasma fractions. In order to determine the 5-fluoro-orotate concentrations of the diluted plasma fractions, the radioactive content of half the samples was determined by liquid scintillation spectrometry. The remaining samples were chromatographed on a Pharmacia FPLC system using a Mono Q anion-exchange column.
# P. yoelii = experiment: Anti-malarial activity in P. yoelii-infected mice; format: in vivo, P. yoelii in Swiss white mice
# Procedure: FIG. 4 illustrates the effect of 5-fluoro-orotate treatment on blood parasitemia. Mice infected with P. yoelii on day 0 in experiments 1 and 2 were treated with (A) 0.2 mg/kg 5-fluoro-orotate, (B) 1 mg/kg, or (C) 5 mg/kg every 4 hours for three days. Control mice (.largecircle., .circle-solid., respectively), received no drug. Open symbols represent treatment without uridine (experiment 1: .smallcircle., .quadrature., .diamond., Δ), and filled symbols represent animals also treated with uridine (experiment 2: .circle-solid., .box-solid., .diamond-solid., .tangle-solidup.). Animals were treated with 5-fluoro-orotate on days 3 to 6. Animals were also treated with uridine in experiment 2 on days 3 to 9.
# FIG. 5 illustrates the survival rate of mice infected with P. yoelii and treated with 5-fluoro-orotate, alone or in combination with uridine. Mice were treated with (A) 0.2 mg/kg 5-fluoro-orotate, (B) 1 mg/kg, or (C) 5 mg/kg. Control mice received no 5-fluoro-orotate (.largecircle., .circle-solid., respectively). Open symbols represent treatment without uridine (experiment 1: .largecircle., .quadrature., .diamond., Δ), and closed symbols represent animals also receiving uridine (experiment 2: .circle-solid., .box-solid., .diamond-solid., .tangle-solidup.).
# A second in vivo test system can be used to determine if repeated administration of the pyrimidine analogue would have safe anti-malarial activity. In this test system, groups of animals are infected with malaria parasites. At a time when blood parasitemia is reached, the animals are injected with saline alone (control) or with various concentrations of one or more pyrimidine analogues alone or together with one or more rescuing pyrimidine bases or nucleosides at a single concentration, at intervals, over a period of several days. In order to determine the prophylactic effectiveness of the rescuing pyrimidine base or nucleoside, the animals are pretreated with such a base or nucleoside prior to the administration of the pyrimidine analogue. Anti-malarial activity of the treatments is estimated by determining blood parasitemia on the animals at appropriate times. The safety of the treatments is estimated by monitoring animals for weight loss and diarrhea, as these are early symptoms of pyrimidine analogue toxicity [Houghton, J. A., et al., Cancer Res., 39:2406-13 (1979)].
# Swiss white mice (25-30 g) were divided into groups of five. On day 0, each mouse was infected by intraperitoneal injection of 10^5 erythrocytic forms of P. yoelii. Starting on day 3, when the blood parasitemia had reached between 5 and 12%, the mice were injected intraperitoneally every 4 hours for three consecutive days with 200 μl of various formulations. […]
# [2] = test system: Plasmodium falciparum, Sierra Leone clone; experiment: [U-14C]-isoleucine incorporation into parasite protein, Sierra Leone clone; format: cell-based, P. falciparum; conditions: Table 2, isoleucine uptake
# Procedure: 3. […] Agents Chemotherap., 16:710-18 (1979)].
# The chloroquine-sensitive Sierra Leone clone of P. falciparum was cultured in erythrocytes as in Example 1 above. In one method of determining the toxicity of 5-fluoro-orotate, [G-^3 H]-hypoxanthine uptake was used as an indicator of parasite proliferation, according to the procedure of Example 1 above. In a second method, the increase in parasitemia was determined directly by smearing infected erythrocytes on microscope slides, staining with Giemsa stain, and determining the ratio of infected to non-infected erythrocytes. In a third method, parasite-infected erythrocytes were incubated with [U-^14 C]-isoleucine (0.5 μCi; 0.33 Ci/mmol), and the amount of radioactivity incorporated into precipitable proteins determined.
compound,measurement,setting,value
O=C(O)c1[nH]c(=O)[nH]c(=O)c1F [5-fluoro-orotate],identity of plasma radioactivity,"[1]; 90 minutes after injection, Mono Q chromatography",radioactivity in the plasma fraction was due to 5-fluoro-orotate and not some secondary metabolite of the experimental drug
same,plasma pharmacokinetic profile in infected mice,"[1]; P. yoelii infected (10% parasitemia), 1 mg/kg, vs uninfected mice",essentially the same as that of uninfected mice
same,circulating radioactivity associated with blood cells,[1]; [2-14C]-5-fluoro-orotate i.p.,below 10%
same,half-life,"[1]; mouse, ip, single i.p. dose, plasma, mice, read-out: t1/2 (loss from the circulation)",~1.5 h
same,concentration at 1 h,"[1]; mouse, plasma, ip, 0.2 mg/kg i.p., within 60 minutes, read-out: drug concentration within 60 minutes",< 0.5 µM
same,Cmax,"[1]; mouse, plasma, ip, 0.2 mg/kg i.p., read-out: maximum drug concentration",≤ 2 µM
same,Cmax,"[1]; mouse, plasma, ip, single i.p. 5 mg/kg, read-out: peak plasma concentration",~30 µM
same,Tmax,"[1]; mouse, plasma, ip, single i.p. 0.2, 1, 5 mg/kg, all dosages, read-out: time of peak plasma concentration",≤ 0.333 h
same,concentration,"[1]; single i.p. 5 mg/kg, read-out: plasma concentration after rapid drop",< 10 µM
same,time to return of parasitemia after end of treatment,"P. yoelii; 0.2 mg/kg, treatment stopped day 6",≤ 24 h
same,transient parasitemia after rechallenge,"P. yoelii; 10^6 P. yoelii parasites, days 2 to 4, 0.2 mg/kg group",less than 0.05%
same,time to resolution of second surge of parasitemia,"P. yoelii; low doses (0.2 and 1 mg/kg), no additional drug",≤ 14 days
same,IC50,[2],4.7 nM
